What all share (assay): biochemical
Common to all, as to design: endogenous in cells; host or cells: K562 cell extract; species or system K562 (extract); replicate k of n = 2 (each experiment ID is one independent experiment; two experiment IDs per compound)
Holding throughout (conditions): read-out: KDapp

Test [1] deals with T1, PRKD2 (Homo sapiens, UniProt Q9BZL6).
T1 sequence (Q9BZL6 1-878): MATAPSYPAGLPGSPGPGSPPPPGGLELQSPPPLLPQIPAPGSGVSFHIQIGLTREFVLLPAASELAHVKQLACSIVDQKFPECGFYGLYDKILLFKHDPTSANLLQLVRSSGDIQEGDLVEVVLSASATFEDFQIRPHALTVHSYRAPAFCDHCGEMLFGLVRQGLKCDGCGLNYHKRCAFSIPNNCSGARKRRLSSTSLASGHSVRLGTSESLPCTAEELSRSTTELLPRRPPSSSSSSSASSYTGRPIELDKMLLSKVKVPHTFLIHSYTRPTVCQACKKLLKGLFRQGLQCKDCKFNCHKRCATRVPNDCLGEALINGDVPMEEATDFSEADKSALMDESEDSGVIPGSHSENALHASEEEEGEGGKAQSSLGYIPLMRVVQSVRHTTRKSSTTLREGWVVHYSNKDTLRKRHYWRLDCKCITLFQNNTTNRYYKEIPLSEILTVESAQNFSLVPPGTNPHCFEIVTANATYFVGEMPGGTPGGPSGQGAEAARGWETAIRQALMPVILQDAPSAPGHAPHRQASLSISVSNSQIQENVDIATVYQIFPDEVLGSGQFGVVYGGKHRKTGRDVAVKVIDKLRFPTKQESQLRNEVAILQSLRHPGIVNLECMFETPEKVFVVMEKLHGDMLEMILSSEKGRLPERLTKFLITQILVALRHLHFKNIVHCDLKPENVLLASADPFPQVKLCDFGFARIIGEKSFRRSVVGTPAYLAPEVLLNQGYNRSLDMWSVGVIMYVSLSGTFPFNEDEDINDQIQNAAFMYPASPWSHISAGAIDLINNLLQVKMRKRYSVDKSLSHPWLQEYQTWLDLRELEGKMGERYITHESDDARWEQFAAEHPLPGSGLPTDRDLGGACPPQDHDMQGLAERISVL

The target of test [2] is TNIK (Homo sapiens, UniProt Q9UKE5).
Test [3] has as its target T2, MERTK (Homo sapiens, UniProt Q12866).
T2 sequence (Q12866 1-999): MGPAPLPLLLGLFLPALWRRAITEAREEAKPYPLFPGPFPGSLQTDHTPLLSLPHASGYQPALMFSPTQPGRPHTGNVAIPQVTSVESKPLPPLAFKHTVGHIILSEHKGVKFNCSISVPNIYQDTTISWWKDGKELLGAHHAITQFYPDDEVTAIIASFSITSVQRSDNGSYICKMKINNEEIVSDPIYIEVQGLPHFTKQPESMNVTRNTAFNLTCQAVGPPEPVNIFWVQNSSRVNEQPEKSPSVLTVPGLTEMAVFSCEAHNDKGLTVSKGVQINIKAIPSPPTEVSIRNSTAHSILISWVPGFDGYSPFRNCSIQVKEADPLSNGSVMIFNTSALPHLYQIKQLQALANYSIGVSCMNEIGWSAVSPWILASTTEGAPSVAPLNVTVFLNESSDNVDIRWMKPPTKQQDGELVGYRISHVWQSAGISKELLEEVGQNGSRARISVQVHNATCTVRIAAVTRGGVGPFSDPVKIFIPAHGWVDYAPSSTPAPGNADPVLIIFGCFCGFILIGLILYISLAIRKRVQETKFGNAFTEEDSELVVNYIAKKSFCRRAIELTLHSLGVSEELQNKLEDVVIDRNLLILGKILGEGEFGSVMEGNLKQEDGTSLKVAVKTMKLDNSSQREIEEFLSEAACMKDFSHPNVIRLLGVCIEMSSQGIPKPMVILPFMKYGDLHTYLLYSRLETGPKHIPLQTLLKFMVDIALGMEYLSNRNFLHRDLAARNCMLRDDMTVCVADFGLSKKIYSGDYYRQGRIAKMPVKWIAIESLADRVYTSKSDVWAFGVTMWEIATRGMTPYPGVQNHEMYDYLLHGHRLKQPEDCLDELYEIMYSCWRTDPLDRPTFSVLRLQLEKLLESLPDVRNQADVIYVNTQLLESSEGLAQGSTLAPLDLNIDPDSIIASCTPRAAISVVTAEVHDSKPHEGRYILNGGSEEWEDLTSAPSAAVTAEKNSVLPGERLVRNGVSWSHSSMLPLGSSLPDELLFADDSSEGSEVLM

Test [4] concerns the target GSK3B (Homo sapiens, UniProt P49841).
Test [5] concerns the target STK10 (Homo sapiens, UniProt O94804).
In test [6] the target is CDC42BPG (Homo sapiens, UniProt Q6DT37).

Several values for one entry are separate records, joined by “and”; a condition that tells them apart may be missing. Equal entries are not always repeated.

Sequence of TNIK (Q9UKE5 whole entry): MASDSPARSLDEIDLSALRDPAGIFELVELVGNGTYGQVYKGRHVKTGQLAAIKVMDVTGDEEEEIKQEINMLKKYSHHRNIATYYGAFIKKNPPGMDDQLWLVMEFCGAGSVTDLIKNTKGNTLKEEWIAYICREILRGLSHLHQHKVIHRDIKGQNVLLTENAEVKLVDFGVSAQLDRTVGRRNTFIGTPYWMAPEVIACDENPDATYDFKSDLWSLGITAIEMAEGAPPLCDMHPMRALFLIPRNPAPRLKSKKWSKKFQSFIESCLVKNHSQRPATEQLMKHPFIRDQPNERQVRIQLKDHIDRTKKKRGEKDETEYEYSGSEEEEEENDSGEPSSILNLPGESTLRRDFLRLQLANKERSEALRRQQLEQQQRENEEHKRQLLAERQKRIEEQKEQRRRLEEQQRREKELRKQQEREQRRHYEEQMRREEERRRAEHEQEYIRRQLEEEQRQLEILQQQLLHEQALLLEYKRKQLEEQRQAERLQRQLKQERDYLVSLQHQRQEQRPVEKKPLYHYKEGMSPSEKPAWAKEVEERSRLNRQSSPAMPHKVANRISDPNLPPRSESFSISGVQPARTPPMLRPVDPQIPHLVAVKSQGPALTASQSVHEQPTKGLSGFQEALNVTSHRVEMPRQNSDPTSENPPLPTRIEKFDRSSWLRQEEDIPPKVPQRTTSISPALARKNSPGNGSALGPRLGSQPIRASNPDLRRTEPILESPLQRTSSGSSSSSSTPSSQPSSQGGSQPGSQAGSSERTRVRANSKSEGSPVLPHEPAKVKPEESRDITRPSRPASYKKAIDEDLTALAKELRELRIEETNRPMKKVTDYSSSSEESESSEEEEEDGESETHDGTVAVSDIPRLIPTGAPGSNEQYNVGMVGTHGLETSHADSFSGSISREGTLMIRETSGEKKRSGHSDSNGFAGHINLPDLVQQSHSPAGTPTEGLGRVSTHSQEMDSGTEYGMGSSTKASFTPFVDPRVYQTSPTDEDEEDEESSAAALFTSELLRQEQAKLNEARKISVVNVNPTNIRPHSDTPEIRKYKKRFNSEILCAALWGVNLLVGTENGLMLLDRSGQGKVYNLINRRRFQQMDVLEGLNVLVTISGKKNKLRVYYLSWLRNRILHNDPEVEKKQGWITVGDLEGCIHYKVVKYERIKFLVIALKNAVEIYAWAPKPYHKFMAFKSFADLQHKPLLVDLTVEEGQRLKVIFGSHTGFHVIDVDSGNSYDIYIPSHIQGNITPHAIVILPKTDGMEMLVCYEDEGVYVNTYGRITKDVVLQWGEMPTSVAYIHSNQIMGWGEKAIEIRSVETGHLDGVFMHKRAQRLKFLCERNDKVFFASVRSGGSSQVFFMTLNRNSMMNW
Sequence of STK10 (O94804 whole entry): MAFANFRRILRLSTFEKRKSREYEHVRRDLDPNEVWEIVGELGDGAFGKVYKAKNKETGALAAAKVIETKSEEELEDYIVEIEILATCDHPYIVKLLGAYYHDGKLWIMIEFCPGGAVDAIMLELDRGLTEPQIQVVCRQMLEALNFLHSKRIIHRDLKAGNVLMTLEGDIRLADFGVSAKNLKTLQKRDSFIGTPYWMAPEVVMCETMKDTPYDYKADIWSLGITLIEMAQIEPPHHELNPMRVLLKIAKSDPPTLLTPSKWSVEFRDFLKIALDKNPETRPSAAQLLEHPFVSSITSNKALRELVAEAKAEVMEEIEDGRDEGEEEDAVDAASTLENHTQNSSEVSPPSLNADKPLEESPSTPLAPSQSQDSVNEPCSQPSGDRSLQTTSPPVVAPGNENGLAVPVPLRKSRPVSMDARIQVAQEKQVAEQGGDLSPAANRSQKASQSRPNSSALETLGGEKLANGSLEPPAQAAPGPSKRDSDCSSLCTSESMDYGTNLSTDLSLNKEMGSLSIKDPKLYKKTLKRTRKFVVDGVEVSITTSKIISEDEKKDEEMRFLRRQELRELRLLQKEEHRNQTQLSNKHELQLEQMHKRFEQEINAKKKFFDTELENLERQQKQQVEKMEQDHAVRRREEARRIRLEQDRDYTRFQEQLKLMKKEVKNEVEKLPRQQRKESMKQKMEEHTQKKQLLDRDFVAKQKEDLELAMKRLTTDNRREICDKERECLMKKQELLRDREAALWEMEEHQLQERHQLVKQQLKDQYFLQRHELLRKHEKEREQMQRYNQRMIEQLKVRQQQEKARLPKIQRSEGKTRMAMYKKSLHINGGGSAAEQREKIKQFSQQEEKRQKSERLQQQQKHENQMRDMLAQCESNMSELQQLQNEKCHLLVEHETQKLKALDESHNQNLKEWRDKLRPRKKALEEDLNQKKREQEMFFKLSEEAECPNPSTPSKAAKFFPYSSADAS
Sequence of CDC42BPG (Q6DT37 whole entry): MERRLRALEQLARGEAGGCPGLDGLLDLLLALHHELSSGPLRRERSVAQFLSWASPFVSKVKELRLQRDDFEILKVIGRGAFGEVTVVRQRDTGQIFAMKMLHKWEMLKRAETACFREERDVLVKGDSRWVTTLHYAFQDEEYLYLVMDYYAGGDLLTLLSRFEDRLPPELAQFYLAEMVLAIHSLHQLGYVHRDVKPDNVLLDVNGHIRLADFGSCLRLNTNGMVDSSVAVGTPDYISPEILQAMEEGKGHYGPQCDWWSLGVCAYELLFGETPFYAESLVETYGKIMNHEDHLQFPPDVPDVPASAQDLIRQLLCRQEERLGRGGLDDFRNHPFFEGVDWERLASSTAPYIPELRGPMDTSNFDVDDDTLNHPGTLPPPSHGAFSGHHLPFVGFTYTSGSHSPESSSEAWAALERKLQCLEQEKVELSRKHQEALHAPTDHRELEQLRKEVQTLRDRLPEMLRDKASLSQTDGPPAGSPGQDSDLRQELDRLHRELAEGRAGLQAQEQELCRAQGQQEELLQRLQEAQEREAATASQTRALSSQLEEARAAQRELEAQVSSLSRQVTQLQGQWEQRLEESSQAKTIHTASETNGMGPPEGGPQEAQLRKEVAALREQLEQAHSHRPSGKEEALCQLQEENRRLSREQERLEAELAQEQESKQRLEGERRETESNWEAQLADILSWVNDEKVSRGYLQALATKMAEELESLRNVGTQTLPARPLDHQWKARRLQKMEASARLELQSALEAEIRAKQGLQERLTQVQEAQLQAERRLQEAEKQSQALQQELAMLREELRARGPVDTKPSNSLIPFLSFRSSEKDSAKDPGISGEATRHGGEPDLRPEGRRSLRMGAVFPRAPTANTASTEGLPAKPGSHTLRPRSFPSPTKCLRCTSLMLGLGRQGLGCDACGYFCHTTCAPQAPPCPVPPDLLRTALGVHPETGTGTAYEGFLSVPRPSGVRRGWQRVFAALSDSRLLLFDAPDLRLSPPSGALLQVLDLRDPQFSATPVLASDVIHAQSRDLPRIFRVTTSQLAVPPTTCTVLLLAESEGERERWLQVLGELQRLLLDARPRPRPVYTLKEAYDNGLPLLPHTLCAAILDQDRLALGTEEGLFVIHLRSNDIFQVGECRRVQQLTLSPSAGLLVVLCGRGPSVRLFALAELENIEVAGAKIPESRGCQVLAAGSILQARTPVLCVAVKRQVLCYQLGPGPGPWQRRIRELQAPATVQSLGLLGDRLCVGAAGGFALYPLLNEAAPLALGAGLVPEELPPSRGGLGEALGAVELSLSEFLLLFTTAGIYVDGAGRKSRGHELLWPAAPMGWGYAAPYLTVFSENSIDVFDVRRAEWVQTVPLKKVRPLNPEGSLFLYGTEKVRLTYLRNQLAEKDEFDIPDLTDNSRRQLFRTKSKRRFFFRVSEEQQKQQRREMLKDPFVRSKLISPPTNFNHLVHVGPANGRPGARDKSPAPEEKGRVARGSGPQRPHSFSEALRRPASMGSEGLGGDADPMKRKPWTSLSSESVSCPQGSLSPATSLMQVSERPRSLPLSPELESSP
Sequence of GSK3B (P49841 whole entry): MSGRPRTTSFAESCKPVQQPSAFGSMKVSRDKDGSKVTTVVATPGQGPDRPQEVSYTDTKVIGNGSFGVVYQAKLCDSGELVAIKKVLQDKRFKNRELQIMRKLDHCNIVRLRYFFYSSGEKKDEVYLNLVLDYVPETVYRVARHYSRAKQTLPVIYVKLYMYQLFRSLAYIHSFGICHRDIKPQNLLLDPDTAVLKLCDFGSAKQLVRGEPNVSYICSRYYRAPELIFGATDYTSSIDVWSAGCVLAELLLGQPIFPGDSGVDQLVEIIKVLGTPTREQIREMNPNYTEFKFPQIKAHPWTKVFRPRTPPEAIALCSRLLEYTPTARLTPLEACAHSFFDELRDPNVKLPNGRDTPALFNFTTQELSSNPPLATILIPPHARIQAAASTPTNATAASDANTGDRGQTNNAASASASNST

Consider `CN1CCN(c2ccc(Nc3ncc(C#N)c(Nc4ccccc4C(N)=O)n3)cc2)CC1.Cl` [TCMDC-134116], for which the Kd was 165 nM and 160 nM in test [1]; 92.2 nM and 115 nM in test [2]; 325 nM in test [3]; 857 nM and 535 nM in test [4]; 25.6 nM and 49.6 nM in test [5]; 848 nM in test [6].

As for `Cl.NCC1(c2nc(-c3ccc(Cl)c(O)c3)c(-c3ccncc3)[nH]2)CCCCC1` [TCMDC-141154], the Kd in test [1] is 2520 nM and 2080 nM; in test [2], 134 nM; in test [3] it was 4800 nM; in test [4] it was 2750 nM; in test [5], 30.4 nM; in test [6], 6790 nM.

With `CN(C)CC(O)COc1ccc(Nc2ncc([N+](=O)[O-])c(Nc3ccccc3O)n2)cc1.O=C(O)C(F)(F)F` (stereo not drawn) [TCMDC-141399], the Kd in test [1] was 921 nM; in test [2], 378 nM; in test [3] it was 567 nM; in test [4], 3000 nM and 3930 nM; in test [5], 3360 nM; in test [6] it was 8140 nM.

These data come from paper PMC4774911, “Biochemical Screening of Five Protein Kinases from Plasmodium falciparum against 14,000 Cell-Active Compounds” (PLoS ONE, 2016).
